Measured values reported in patent US6475746B1, “Method of obtaining a composition comprising a 5-HT1D selective compound” (Synaptic Pharmaceutical Corporation, priority 1990, dated 2002).
Read-outs that look alike come from different tables or passages of the source.

Key:
Cloned Human 5-HT1D-2 = Cloned Human 5-HT1D-2 (Homo sapiens, UniProt P28222); experiment: [3H]5-HT binding to cloned human 5-HT1D-2 (gene 11) in transfected cell membranes
Cloned Human 5-HT1D-1 = Cloned Human 5-HT1D-1 (Homo sapiens, UniProt P28221); experiment: [3H]5-HT binding to cloned human 5-HT1D-1 (gene 8-30-84) in transfected cell membranes
Sequence of Cloned Human 5-HT1D-1 (P28221 whole entry): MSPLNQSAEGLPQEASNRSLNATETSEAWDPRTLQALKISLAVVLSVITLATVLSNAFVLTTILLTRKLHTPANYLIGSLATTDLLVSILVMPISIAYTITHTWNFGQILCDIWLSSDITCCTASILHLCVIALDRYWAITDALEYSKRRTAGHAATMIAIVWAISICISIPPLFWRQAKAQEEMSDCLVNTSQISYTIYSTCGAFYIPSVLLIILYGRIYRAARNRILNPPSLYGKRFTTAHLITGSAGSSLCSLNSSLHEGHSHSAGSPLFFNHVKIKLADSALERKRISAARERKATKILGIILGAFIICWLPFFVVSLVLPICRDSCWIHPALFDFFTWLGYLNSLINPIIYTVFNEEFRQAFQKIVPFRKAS

[1] = molecular target: Human Native Membranes 5-HT1D; conditions: literature values (footnotes a, b, c), read-out: Estimated equilibrium dissociation constants (Ki values); cited from earlier work
[2] = molecular target: Cloned Canine 5-HT1D-1 (RDC4) (Canis lupus familiaris, UniProt P11614); experiment: [3H]5-HT binding to cloned canine 5-HT1D-1 (RDC4) in transfected cell membranes
Sequence of Cloned Canine 5-HT1D-1 (RDC4) (P11614 whole entry): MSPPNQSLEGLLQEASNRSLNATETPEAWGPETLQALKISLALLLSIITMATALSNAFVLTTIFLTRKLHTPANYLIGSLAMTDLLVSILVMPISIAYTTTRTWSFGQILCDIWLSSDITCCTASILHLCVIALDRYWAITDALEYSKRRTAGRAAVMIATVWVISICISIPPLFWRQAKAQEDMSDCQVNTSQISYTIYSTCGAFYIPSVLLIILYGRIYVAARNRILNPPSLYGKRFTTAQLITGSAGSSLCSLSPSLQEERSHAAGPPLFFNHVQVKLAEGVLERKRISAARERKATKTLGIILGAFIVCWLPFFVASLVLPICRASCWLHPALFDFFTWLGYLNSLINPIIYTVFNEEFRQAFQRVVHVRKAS

[3] = molecular target: T1, cloned rat 5-HT1B receptor (Rattus norvegicus, UniProt P28564); format: binding
T1 construct: expressed in transfected cells; host or cells: Cos-7 cells, transient; membrane fraction
T1 sequence (P28564 whole entry): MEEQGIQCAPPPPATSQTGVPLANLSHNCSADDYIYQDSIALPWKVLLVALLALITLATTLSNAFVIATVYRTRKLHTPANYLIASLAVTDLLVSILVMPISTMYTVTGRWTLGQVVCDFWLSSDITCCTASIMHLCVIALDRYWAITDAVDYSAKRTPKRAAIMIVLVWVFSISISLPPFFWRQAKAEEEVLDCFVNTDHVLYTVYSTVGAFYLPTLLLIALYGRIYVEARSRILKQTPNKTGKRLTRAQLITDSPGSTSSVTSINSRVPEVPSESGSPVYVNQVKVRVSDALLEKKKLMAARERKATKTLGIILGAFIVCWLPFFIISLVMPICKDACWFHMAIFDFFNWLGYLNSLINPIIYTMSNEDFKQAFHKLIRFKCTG
Experimental: To islolate the putative rat homolog of the 5-HT1D gone, a rat library was screened at high stringency using a human 5-HT1D sequence as a probe. […] To identify the pharmacological profile of this receptor, radioligand binding assays were performed on a membrane fraction derived from the transfected cells.

human 5-HT1D clone = experiment: Radioligand binding to human 5-HT1D clone (comparison with rat clone)
[4] = read-out: Estimated equilibrium dissociation constants (Ki values), [3H]5-HT displacement, membranes of LM (tk−) cells stably transfected, Cheng-Prusoff

Sequence of Cloned Human 5-HT1D-2 (P28222 whole entry): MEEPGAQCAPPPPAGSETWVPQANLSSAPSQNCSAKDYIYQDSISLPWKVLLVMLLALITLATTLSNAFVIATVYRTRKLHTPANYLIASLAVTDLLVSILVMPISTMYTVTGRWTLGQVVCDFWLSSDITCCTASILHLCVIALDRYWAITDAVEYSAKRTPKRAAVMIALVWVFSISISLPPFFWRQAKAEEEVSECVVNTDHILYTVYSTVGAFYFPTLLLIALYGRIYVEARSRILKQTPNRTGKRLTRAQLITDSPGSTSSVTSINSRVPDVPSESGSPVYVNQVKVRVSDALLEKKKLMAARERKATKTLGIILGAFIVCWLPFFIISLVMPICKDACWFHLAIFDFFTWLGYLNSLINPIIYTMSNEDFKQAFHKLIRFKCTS

c1ccc2c(N3CCNCC3)cccc2c1 [1-Napthylpiperazine]
Ki (Cloned Human 5-HT1D-2; [4]): 12 ± 2 nM
Ki (Cloned Human 5-HT1D-1; [4]): 7.4 ± 0.6 nM

Cc1[nH]c2ccc(O)cc2c1CCN [2-methyl-5-HT]
Ki [1]: 1700 nM
Ki (Cloned Human 5-HT1D-2; [4]): 860 ± 109 nM
Ki (Cloned Human 5-HT1D-1; [4]): 915 ± 68 nM
Ki [2, 4]: 444 ± 30 nM

NCCc1c[nH]c2ccc(OCc3ccccc3)cc12 [5-Benzoxyltryptamine]
Ki (Cloned Human 5-HT1D-2; [4]): 19 ± 8 nM
Ki (Cloned Human 5-HT1D-1; [4]): 9.6 ± 3 nM

NCCc1c[nH]c2ccc(C(N)=O)cc12 [5-Carboxamidotryptamine]
affinity for the binding site ([2]; RDC4-transfected cells): high affinity
Ki [2, 4]: 0.92 ± 0.06 nM

NCCc1c[nH]c2ccc(O)cc12 [5-Hydrozytryptamine]
Ki [1]: 6.5 nM
Ki [2, 4]: 5 ± 1.4 nM

COc1ccc2[nH]cc(CCN)c2c1 [5-Methoxytryptamine]
Ki [1]: 6.2 nM

COc1ccc2[nH]cc(CCN(C)C)c2c1 [5-methoxy-DMT]
Ki [2, 4]: 5.1 ± 1.7 nM

Oc1ccc2c(CCC3CCNCC3)c[nH]c2c1 [6-OH-indalpine]
ability to compete for 3H-5-HT binding sites ([2]; RDC4-transfected cells): unable to compete

COc1cc(CC(C)N)c(OC)cc1I (stereo not shown) [DOI]
Ki [1]: 670 nM
Ki (Cloned Human 5-HT1D-2; [4]): 1670 ± 451 nM
Ki (Cloned Human 5-HT1D-1; [4]): 714 ± 81 nM
Ki [2, 4]: 729 ± 102 nM

CCCN(CCC)C1CCc2cccc(O)c2C1 (stereo not shown) [DPAT]
Ki [1]: 340 nM
Ki [2, 4]: 86 ± 21 nM

CCCN(CCC)CCc1c[nH]c2ccc(C(N)=O)cc12 [Dipropyl-5-CT, dipropyl-5-carboxyamidotryptamine]
Ki (Cloned Human 5-HT1D-2; [4]): 42 ± 4 nM
Ki (Cloned Human 5-HT1D-1; [4]): 13 ± 1 nM
activity at the rat receptor [3]: essentially inactive

CN1C[C@H](C(=O)N[C@]2(C)O[C@@]3(O)[C@@H]4CCCN4C(=O)[C@H](Cc4ccccc4)N3C2=O)C=C2c3cccc4[nH]cc(c34)C[C@H]21 [Ergotamine]
Ki [1]: 0.3 nM
Ki [2]: 1.9 ± 0.3 nM

CN1[C@@H]2CC[C@H]1C[C@@H](OC(=O)c1c[nH]c3ccccc13)C2 [ICS 205-930]
ability to compete for 3H-5-HT binding sites ([2]; RDC4-transfected cells): unable to compete

O=C(c1ccc(F)cc1)C1CCN(CCn2c(=O)[nH]c3ccccc3c2=O)CC1 [Ketanserin]
Ki [1]: > 10000 nM
Ki (Cloned Human 5-HT1D-2): 5200 ± 524 nM
Ki (Cloned Human 5-HT1D-1): 73 ± 12 nM
Ki [2]: > 1000 nM
ability to compete for 3H-5-HT binding sites ([2]; RDC4-transfected cells): unable to compete

CN1C[C@H](CO)C=C2c3cccc4[nH]cc(c34)C[C@H]21 [Lysergol]
Ki (Cloned Human 5-HT1D-2; [4]): 1.2 ± 0.1 nM
Ki (Cloned Human 5-HT1D-1; [4]): 0.63 ± 0.1 nM

CN1C[C@H](CNC(=O)OCc2ccccc2)C[C@@H]2c3cccc4c3c(cn4C)C[C@H]21 [Metergoline]
Ki [1]: 12 nM
Ki (Cloned Human 5-HT1D-2): 18 ± 3 nM
Ki (Cloned Human 5-HT1D-1): 5.8 ± 1.1 nM

CSc1ccc2c(c1)C(N1CCN(C)CC1)Cc1ccccc1S2 (stereo not shown) [Methiothepin]
Ki [1]: 17 nM
Ki (Cloned Human 5-HT1D-2; [4]): 25 ± 7 nM
Ki (Cloned Human 5-HT1D-1; [4]): 11 ± 2 nM

CC[C@@H](CO)NC(=O)[C@@H]1C=C2c3cccc4[nH]cc(c34)C[C@H]2N(C)C1 [Methylergonovine]
Ki (Cloned Human 5-HT1D-2): 2.9 ± 1.5 nM
Ki (Cloned Human 5-HT1D-1): 0.86 ± 0.36 nM

CC[C@@H](CO)NC(=O)[C@@H]1C=C2c3cccc4c3c(cn4C)C[C@H]2N(C)C1 [Methysergide]
Ki (Cloned Human 5-HT1D-2; [4]): 25 ± 5 nM
Ki (Cloned Human 5-HT1D-1; [4]): 3.6 ± 0.6 nM
Ki [2, 4]: 7.7 ± 1.7 nM

COc1ccccc1N1CCN(CCCCN2C(=O)c3ccccc3C2=O)CC1 [NAN-190]
Ki (Cloned Human 5-HT1D-2): 652 ± 48 nM
Ki (Cloned Human 5-HT1D-1): 194 ± 12 nM

Nc1ccc(CCN2CCN(c3cccc(C(F)(F)F)c3)CC2)cc1 [PAPP]
Ki (Cloned Human 5-HT1D-2; [4]): 10 ± 1 nM
Ki (Cloned Human 5-HT1D-1; [4]): 3.1 ± 0.2 nM
Ki [2, 4]: 35 ± 6 nM

Cc1ccc(N(CC2=NCCN2)c2cccc(O)c2)cc1 [Phentolamine]
Ki (Cloned Human 5-HT1D-2): 2150 ± 685 nM
Ki (Cloned Human 5-HT1D-1): 775 ± 72 nM

CC(C)NCC(O)COc1cccc2[nH]ccc12 (stereo not shown) [Pindolol]
Ki [1]: > 10000 nM
Ki (Cloned Human 5-HT1D-2): 4880 ± 302 nM
effect of masking ligand on specific binding or pharmacological profile (Cloned Human 5-HT1D-2; transfected Cos-7 cells, peptide 11, masking ligand 1 μM): no significant effect
Ki (Cloned Human 5-HT1D-1): 4110 ± 504 nM
Ki [2]: > 1000 nM
effect of co-incubation on high affinity 3H-5-HT binding ([2]; RDC4-transfected cells, 1 μm): not affected
effect of masking ligand on specific binding or pharmacological profile ([2]; transfected Cos-7 cells, RDC4, masking ligand 1 μM): no significant effect

COC(=O)[C@H]1[C@H]2C[C@H]3c4[nH]c5ccccc5c4CCN3C[C@H]2CC[C@@H]1O [Rauwolscine]
Ki (Cloned Human 5-HT1D-1): 16 ± 2 nM
Ki [2]: 5.3 ± 2.9 nM

Cc1nc2sccn2c(=O)c1CCN1CCC(=C(c2ccc(F)cc2)c2ccc(F)cc2)CC1 [Ritanserin]
Ki [1]: 3600 nM
Ki (Cloned Human 5-HT1D-2): 1200 ± 115 nM
Ki (Cloned Human 5-HT1D-1): 54 ± 10 nM

CN1CCc2cc(Cl)c(O)cc2[C@@H](c2ccccc2)C1 [SCH-23390]
Ki (Cloned Human 5-HT1D-2): 1210 ± 626 nM
Ki (Cloned Human 5-HT1D-1): 676 ± 69 nM

O=C(CCCN1CCC2(CC1)C(=O)NCN2c1ccccc1)c1ccc(F)cc1 [Spiperone]
Ki (Cloned Human 5-HT1D-2): > 10000 nM
Ki (Cloned Human 5-HT1D-1; [4]): 995 ± 96 nM
Ki [2]: > 1000 nM

CNS(=O)(=O)Cc1ccc2[nH]cc(CCN(C)C)c2c1 [Sumatriptan]
affinity (Cloned Human 5-HT1D-1; refers to Table 1): extremely high affinity

FC(F)(F)c1cccc(N2CCNCC2)c1 [TFMPP]
Ki [1]: 210 nM
Ki [2, 4]: 112 ± 14 nM

NCCc1c[nH]c2ccccc12 [Tryptamine]
Ki [1]: 46 nM
Ki [2, 4]: 343 ± 15 nM

COC(=O)[C@@H]1[C@H]2C[C@H]3c4[nH]c5ccccc5c4CCN3C[C@@H]2CC[C@@H]1O [Yohimbine]
Ki [1]: 42 nM
Ki (Cloned Human 5-HT1D-1; [4]): 22 ± 2 nM
Ki [2, 4]: 32 ± 6 nM

COc1cc(N)c(Cl)cc1C(=O)NC1CN2CCC1CC2 (stereo not shown) [Zacopride]
Ki (Cloned Human 5-HT1D-2): > 10000 nM
Ki (Cloned Human 5-HT1D-1): > 10000 nM
Ki [2]: > 10000 nM

CC(C)(C)NCC(O)COc1cccc2[nH]c(C#N)c(I)c12 (stereo not shown) [[^125I]iodocyanopindolol]
Kd ([3]; Cos-7 membranes, in the presence of 3 μM isoproterenol, read-out: Kd of [125I]iodocyanopindolol): 0.16 nM

CC(C)(C)NCC(O)COc1cccc2[nH]c(C#N)c([125I])c12 (stereo not shown) [[^125I]iodocyanopindolol]
specific binding of [125I]I-CYP (human 5-HT1D clone; at 1 nM): no specific binding detected

Clc1cccc(N2CCNCC2)c1 [mCPP]
Ki [1]: 1200 nM
Ki (Cloned Human 5-HT1D-2; [4]): 361 ± 31 nM
Ki (Cloned Human 5-HT1D-1; [4]): 216 ± 20 nM
Ki [2, 4]: 329 ± 80 nM

Corynanthine
Ki [1]: > 10000 nM

^3H-5-HT
Kd (human 5-HT1D clone; read-out: Kd of [3H]5-HT): 4 nM
Kd ([2]; read-out: KD of radioligand (apparent high affinity), RDC4-transfected Cos-7 and Ltk- cells): ~3 nM
Kd ([2]; read-out: Kd of radioligand, Ltk- cells transfected with RDC4): 3.6 nM
Kd ([2]; read-out: affinity of radioligand binding, transiently transfected Cos-7 cells, RDC4): 3 nM
